Read-outs that look alike come from different tables or passages of the source.

Experiment [1] concerns cGMP PDE activity in HCT116 lysates. Put plainly: cGMP hydrolysis in lysates from HCT116 colon tumor cells. It is filed as biochemical, human. To be noted: in words, Figure 1C. As for the experimental part: (§1) PDE activity was measured using the IMAP fluorescence polarization (FP) PDE assay (Molecular Devices) in which binding of hydrolyzed fluorescent cyclic nucleotide substrate to the IMAP reagent increases FP as described previously.

A further experiment concerns HCT116 colon tumor cells. Put plainly: Growth assay (Cell Titer Glo), HCT116. Particulars: for HCT116 colon tumor cell growth: in words, Figure 1B; for IC50: Homo sapiens, HCT-116, 72 h. It is filed as cell-based, human. As for the experimental part: All cell lines were expanded upon delivery, and numerous aliquots of low passage cells were preserved in liquid N2. Cells were passaged no longer than 2 months. Tumor cell lines obtained from ATCC were characterized by STR profiling as performed by ATCC. The NCM460 line was characterized by INCELL as described previously (e.g. tumorigenicity testing). No additional re-authentication of the cell lines was performed except for experimental reasons (e.g. confirmation of cell doubling time, morphology, sensitivity to SS, PDE5/10 expression levels, etc). Cells were plated in 96-well microtiter plates at a density of 5,000 cells per well. For drug treatment, cells were treated with compound or vehicle, and incubated at 37°C for 72 hours. […] For siRNA assays, cells were transfected with siRNA under the same condition described above. The effect of treatment on cell growth was measured using the Cell Titer Glo Assay as specified by the manufacturer (Promega). The IC50 values were determined as described previously. All experiments were repeated a minimum of three times to determine the reproducibility of the results. All error bars represent standard error of the mean (SEM). Statistical analysis of differences between samples was performed using the Student’s t-test.

Experiment [2] relates to β-catenin/TCF transcriptional activity in HCT116 cells. Type of experiment: cell-based. Particulars: HCT116, 24 hours of treatment. As for the experimental part: Cells were seeded at a density of 5 × 10^4 cells per well in 24-well tissue culture plates and incubated overnight at 37°C. Cells were transiently transfected with 0.1 μg TOP-FLASH constructs (Millipore) and 0.1 μg β-galactosidase-expressing vector (Promega). After 24 hours of transfection, cells were treated with ADT-094 or vehicle for 24 hours. At the end of treatment, cells were lysed and both luciferase and β-galactosidase activities were measured using kits from Promega. All luciferase activity was normalized to β-galactosidase activity.

Experiment [3] deals with β-catenin signaling in HCT116 colon tumor cells. Put plainly: Western blotting of β-catenin, cyclin D1, survivin, HCT116. Type of experiment: cell-based, human. As for the experimental part: Western blotting was performed as described previously. Cells were treated with ADT-094 or vehicle for 8 hours before cell lysates were collected.
Experiment [4] concerns NCM460 normal colonocytes. To be noted: as previously reported; cited from earlier work.
The next experiment has as its target T1, purified ovine COX-1 (Ovis aries, UniProt P05979).
T1 construct: purchased Cayman
T1 sequence (P05979 25-600): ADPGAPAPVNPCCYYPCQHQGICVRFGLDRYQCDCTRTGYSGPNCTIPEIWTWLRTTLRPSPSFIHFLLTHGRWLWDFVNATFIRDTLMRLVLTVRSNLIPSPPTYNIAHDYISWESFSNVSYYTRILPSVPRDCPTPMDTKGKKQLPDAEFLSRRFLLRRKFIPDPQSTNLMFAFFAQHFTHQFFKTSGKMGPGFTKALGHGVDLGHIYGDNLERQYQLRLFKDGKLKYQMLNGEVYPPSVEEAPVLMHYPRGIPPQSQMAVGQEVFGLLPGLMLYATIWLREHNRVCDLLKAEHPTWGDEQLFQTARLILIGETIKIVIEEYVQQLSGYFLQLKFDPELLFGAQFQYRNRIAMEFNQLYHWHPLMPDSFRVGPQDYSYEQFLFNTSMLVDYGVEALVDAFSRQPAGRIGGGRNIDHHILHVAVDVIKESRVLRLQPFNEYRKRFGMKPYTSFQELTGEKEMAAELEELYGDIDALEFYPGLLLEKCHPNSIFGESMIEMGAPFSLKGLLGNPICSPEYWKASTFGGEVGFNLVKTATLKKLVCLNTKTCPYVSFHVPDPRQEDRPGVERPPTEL
Put plainly: COX-1 colorimetric assay. It is filed as biochemical. As for the experimental part:
COX-1 and COX-2 activities were measured using purified ovine COX-1 and COX-2 with colorimetric assay kits obtained from Cayman as previously reported. The activities of COX-1 and COX-2 were measured after the addition of arachidonic acid and incubation at 25°C for 5 min by absorbance at 590 nm as specified by the manufacturer.
(§2) The IC50 values were determined as described previously. All experiments were repeated a minimum of three times to determine the reproducibility of the results. All error bars represent standard error of the mean (SEM). Statistical analysis of differences between samples was performed using the Student’s t-test. A P value of < 0.05 was considered statistically significant.

Experiment [5] deals with NCM460 normal colonocytes. The experiment in a line: Growth assay (Cell Titer Glo), NCM460 normal colonocytes. Type of experiment: cell-based, human. To be noted: Homo sapiens, NCM460, 72 h, read-out: NCM460 growth IC50. As for the experimental part:
(§3) Human colon tumor cell lines, HCT116, HT29, SW480 and Caco-2 were obtained from the American Type Culture Collection (ATCC) and grown under standard cell culture conditions in RPMI 1640 medium containing 5% serum at 37°C in a humidified atmosphere with 5% CO2. The human colonocyte line, NCM460, that is derived from normal human colon mucosa was obtained from INCELL and grown in INCELL’s enriched M3:10 medium with 10% serum as recommended by supplier. All cell lines were expanded upon delivery, and numerous aliquots of low passage cells were preserved in liquid N2. Cells were passaged no longer than 2 months. Tumor cell lines obtained from ATCC were characterized by STR profiling as performed by ATCC. The NCM460 line was characterized by INCELL as described previously (e.g. tumorigenicity testing). No additional re-authentication of the cell lines was performed except for experimental reasons (e.g. confirmation of cell doubling time, morphology, sensitivity to SS, PDE5/10 expression levels, etc).
(§4) Cells were plated in 96-well microtiter plates at a density of 5,000 cells per well. For drug treatment, cells were treated with compound or vehicle, and incubated at 37°C for 72 hours. All growth assays were performed in 5% serum unless otherwise noted. Deionized water was used as vehicle control for papaverine. For siRNA assays, cells were transfected with siRNA under the same condition described above. The effect of treatment on cell growth was measured using the Cell Titer Glo Assay as specified by the manufacturer (Promega).
as §2

For the next experiment, the system named is HT29 colon tumor cells. Put plainly: Growth assay (Cell Titer Glo), HT29. Type of experiment: cell-based. To be noted: Homo sapiens, HT-29, 72 h. As for the experimental part: as §3, §4, §2
(ATP-based viability assays read luminescence as a measure of living cells.)

The target of a further experiment is T2, PDE10 (Homo sapiens, UniProt Q9Y233).
T2 construct: purchased BPS Biosciences
T2 sequence (Q9Y233 267-1055): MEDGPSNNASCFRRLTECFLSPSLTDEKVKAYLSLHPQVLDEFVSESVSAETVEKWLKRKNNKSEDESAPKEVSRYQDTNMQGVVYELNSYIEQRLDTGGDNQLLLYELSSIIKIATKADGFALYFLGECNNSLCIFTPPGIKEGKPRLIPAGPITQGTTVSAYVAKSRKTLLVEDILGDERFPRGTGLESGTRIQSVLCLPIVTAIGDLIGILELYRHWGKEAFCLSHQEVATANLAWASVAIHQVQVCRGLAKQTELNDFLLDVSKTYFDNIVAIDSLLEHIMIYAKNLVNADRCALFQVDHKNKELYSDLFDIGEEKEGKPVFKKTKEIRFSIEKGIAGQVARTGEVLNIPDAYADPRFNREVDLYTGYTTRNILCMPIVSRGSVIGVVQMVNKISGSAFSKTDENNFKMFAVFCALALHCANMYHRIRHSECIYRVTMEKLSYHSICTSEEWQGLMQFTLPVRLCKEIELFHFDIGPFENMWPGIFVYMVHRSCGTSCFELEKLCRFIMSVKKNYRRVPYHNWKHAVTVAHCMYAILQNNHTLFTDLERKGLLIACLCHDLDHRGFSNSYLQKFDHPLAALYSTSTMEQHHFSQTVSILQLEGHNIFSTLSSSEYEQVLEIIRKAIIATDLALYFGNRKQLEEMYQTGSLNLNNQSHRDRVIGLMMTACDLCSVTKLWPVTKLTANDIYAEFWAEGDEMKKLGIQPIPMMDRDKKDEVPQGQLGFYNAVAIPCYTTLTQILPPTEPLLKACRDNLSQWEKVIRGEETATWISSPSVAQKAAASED
The experiment in a line: IMAP fluorescence polarization PDE assay, recombinant PDE10. Type of experiment: biochemical. To be noted: recombinant enzyme. As for the experimental part:
(§5) Recombinant PDE isozymes were purchased from BPS Biosciences. The PDE10 antibody was purchased from GeneTex, while the PDE5 antibody was purchased from Cell Signaling Technologies. Non-targeting control siRNA and PDE10 specific siRNAs were purchased from Qiagen. RNAiMAX transfection reagent was purchased from Invitrogen. DMSO was used as vehicle for all compounds unless otherwise noted. All other reagents were purchased from Sigma.
as §1, §2
A general note: Fluorescence polarisation rises when a labelled molecule tumbles more slowly, as on binding a larger partner.

For a further experiment, the target named is T3, PDE5 (Homo sapiens, UniProt O76074).
T3 construct: purchased BPS Biosciences
The experiment in a line: IMAP fluorescence polarization PDE assay, recombinant PDE5. Particulars: recombinant enzyme. Type of experiment: biochemical. As for the experimental part: as §5, §1, §2

For the compound `Clc1cccc(Nc2nnc(-c3ccccc3)c3ccccc23)c1` [MY5445, 1-(3-chlorophenylamino)-4-phenylphthalazine], the “cGMP hydrolysis in HCT116 lysates” value in experiment [1] is “inhibited cGMP hydrolysis”. Moreover, the “HCT116 colon tumor cell growth” value in the experiment with HCT116 colon tumor cells is recorded as “effectively inhibit”. Also, in [2], the β-catenin/TCF transcriptional activity result is given as “reduced”. In addition, in experiment [3], the expression of survivin entry is reported as “reduced” and the β-catenin levels entry was “reduced”. In addition, in experiment [4], the growth of colonocytes entry is on record as “did not significantly affect”.
With `CSc1ccc(/C=C2/C(C)=C(CC(=O)O)c3cc(F)ccc32)cc1` [SS, Sulindac sulfide, reference compound], the IC50 against purified ovine COX-1 is 1.2 µM; in experiment [5], over 100 µM; with HCT116 colon tumor cells (read-out: HCT116 growth IC50, 72 hours of treatment), 51 µM; in the experiment with HCT116 colon tumor cells (read-out: HCT116 growth IC50, Figure 3C, luciferase-based ATP assay, 72 hours) it was 51.1 µM; in the experiment with HT29 colon tumor cells (read-out: HT29 growth IC50, 72 hours of treatment), 68 µM; in the experiment on HT29 colon tumor cells (read-out: HT29 growth IC50, Figure 3C, luciferase-based ATP assay, 72 hours), 63.8 µM. The IC50 at PDE10 is 70 µM; at PDE5 it was 38 µM.
Turning to `COc1ccc(Cc2nccc3cc(OC)c(OC)cc23)cc1OC` [papaverine], the “cGMP hydrolysis in HCT116 lysates” value in experiment [1] is “inhibited cGMP hydrolysis”. The “HCT116 colon tumor cell growth” value with HCT116 colon tumor cells is reported as “effectively inhibit”. In experiment [2], the β-catenin/TCF transcriptional activity result is reported as “reduced”. Besides, in experiment [3], the expression of survivin result was “reduced” and the β-catenin levels result was “reduced”. Moreover, the growth of colonocytes result in experiment [4] was “did not significantly affect”.

The term IC50 denotes the concentration needed to halve the response being measured.

These data come from PMC4694998, “Suppression of β-catenin/TCF transcriptional activity and colon tumor cell growth by dual inhibition of PDE5 and 10” (Oncotarget, 2015).
